Columns and labels:
[1] = Iodine stain removal, trial and error testing / actual usage
Text: In use, the desired level of concentration may be intentionally varied to correspond to anticipated situations. For instance, products that are directed towards general cleanup, such as flooring, or equipment, or linens, may be made at the higher ranges so as to ensure quick and complete neutralization of the Iodine. The higher concentrations serve also to overcome any associated soil or other materials that may impede the action of the sodium metabisulfite on the Iodine stains.

[2] = use of the metabisulfite solution directly on human and animal patients (tolerability); format: in vivo; conditions: 0.020 to 0.035 percent by weight in water, on skin
Text: Additionally, the same solution is effective for removing stains elsewhere. The solutions of the present embodiments may be packaged for liquid application, such as in bottles, or sprays, or swabs.

[3] = cosmetic remover solution with parabens; cited from earlier work

Structure (SMILES)	effectiveness in eliminating Iodine staining ([1]; 0.020 to 0.035 percent by weight in water)	deleterious effects or irritation to the patient [2]	irritation or other adverse reactions in and about the eyes of users [3]	effectiveness of Iodine stain removal compared to modest aqueous solutions of sodium metabisulfite ([1]; sodium thiosulfate in an alkaline detergent type matrix, actual usage)
O=S([O-])S(=O)(=O)[O-].[Na+].[Na+] [sodium metabisulfite]	highly effective	does not show any deleterious effects or irritation	did not contribute to any irritation or other adverse reactions	–
O=S([O-])([O-])=S.[Na+].[Na+] [sodium thiosulfate, reference compound]	–	–	–	weak

— patent US20070092464A1, “Betadine neutralizer” (priority 2005, published 2007)
